Measured values from patent US11458123B2 (Arvinas, Inc., priority 2016, dated 2022).

What follows are compounds tested on tau protein (assay: Tau protein in vitro degradation assay (Western blot, Tau-13 antibody)). Settings: SK-N-SH cells; 72 hours of incubation; tested at 300 nM, 100 nM, 33 nM and 11 nM; Western blot, Tau-13 antibody.
Assay type: cell-based, human
Procedure, shortened: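 SK-N-SH cells, seeded ≥18 h beforehand, were incubated 72 h with tau PROTACs at 1000, 300 and 100 nM or at 300, 100, 33 and 11 nM. Lysates in protease-inhibitor buffer were resolved by SDS-PAGE; tau quantified by Western blot with Tau-13 antibody recognising all human tau forms.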
In the case of Cc1ncsc1-c1ccc(CNC(=O)[C@@H]2C[C@@H](O)CN2C(=O)[C@H](C(C)C)N2Cc3ccccc3C2=O)c(OCCOCCOc2ccc(-c3ccc4c(c3)[nH]c3ccncc34)cn2)c1 [Compound 186, (2S,4R)—N-(2-(2-(2-((5-(5H-pyrido[4,3-b]indol-7-yl)pyridin-2-yl)oxy)ethoxy)ethoxy)-4-(4-methylthiazol-5-yl)benzyl)-4-hydroxy-1-((S)-3-methyl-2-(1-oxoisoindolin-2-yl)butanoyl)pyrrolidine-2-carboxamide], the “Degradation activity (tau protein remaining; highest amount of degradation observed at any dosage)” value was “B (≤80% and >50% tau protein remaining after 72 hours of incubation with the test compound)”. With Cc1ncsc1-c1ccc(CNC(=O)[C@@H]2C[C@@H](O)CN2C(=O)[C@H](C(C)C)N2Cc3ccccc3C2=O)c(OCCOCCOCCOc2ccc(-c3ccc4c(c3)[nH]c3ccncc34)cn2)c1 [Compound 187, (2S,4R)—N-(2-(2-(2-(2-((5-(5H-pyrido[4,3-b]indol-7-yl)pyridin-2-yl)oxy)ethoxy)ethoxy)ethoxy)-4-(4-methylthiazol-5-yl)benzyl)-4-hydroxy-1-((S)-3-methyl-2-(1-oxoisoindolin-2-yl)butanoyl)pyrrolidine-2-carboxamide] the “Degradation activity (tau protein remaining; highest amount of degradation observed at any dosage)” value was “C (>80% tau protein remaining after 72 hours of incubation with the test compound)”. For O=C1CCC(N2C(=O)c3ccc(OCCOCC#Cc4ccc(O[C@H]5C[C@H](Oc6ccc(-c7ccc8c(c7)[nH]c7ccncc78)cn6)C5)cc4)cc3C2=O)C(=O)N1 (stereo partly drawn) [Compound 188, 5-(2-((3-(4-((1r,3r)-3-((5-(5H-pyrido[4,3-b]indol-7-yl)pyridin-2-yl)oxy)cyclobutoxy)phenyl)prop-2-yn-1-yl)oxy)ethoxy)-2-(2,6-dioxopiperidin-3-yl)isoindoline-1,3-dione], the “Degradation activity (tau protein remaining; highest amount of degradation observed at any dosage)” value was “B (≤80% and >50% tau protein remaining after 72 hours of incubation with the test compound)”. O=C1CCC(N2C(=O)c3ccc(OCC#Cc4ccc(O[C@H]5C[C@H](Oc6ccc(-c7ccc8c(c7)[nH]c7ccncc78)cn6)C5)cc4)cc3C2=O)C(=O)N1 (stereo partly drawn) [Compound 189, 5-((3-(4-((1r,3r)-3-((5-(5H-pyrido[4,3-b]indol-7-yl)pyridin-2-yl)oxy)cyclobutoxy)phenyl)prop-2-yn-1-yl)oxy)-2-(2,6-dioxopiperidin-3-yl)isoindoline-1,3-dione] was tested, and the “Degradation activity (tau protein remaining; highest amount of degradation observed at any dosage)” value was “B (≤80% and >50% tau protein remaining after 72 hours of incubation with the test compound)”. Cn1c2ccncc2c2ccc(-c3ccc(O[C@H]4C[C@H](OCCOCCOCCC5CN(c6ccc7c(c6)C(=O)N(C6CCC(=O)NC6=O)C7=O)C5)C4)nc3)cc21 (stereo partly drawn) [Compound 190, 2-(2,6-dioxopiperidin-3-yl)-5-(3-(2-(2-(2-((1r,3r)-3-((5-(5-methyl-5H-pyrido[4,3-b]indol-7-yl)pyridin-2-yl)oxy)cyclobutoxy)ethoxy)ethoxy)ethyl)azetidin-1-yl)isoindoline-1,3-dione] was tested, and the “Degradation activity (tau protein remaining; highest amount of degradation observed at any dosage)” value was “C (>80% tau protein remaining after 72 hours of incubation with the test compound)”. Cn1c2ccncc2c2ccc(-c3ccc(O[C@H]4C[C@H](OCCOCCCOCC5CN(c6ccc7c(c6)C(=O)N(C6CCC(=O)NC6=O)C7=O)C5)C4)nc3)cc21 (stereo partly drawn) [Compound 191, 2-(2,6-dioxopiperidin-3-yl)-5-(3-((3-(2-((1r,3r)-3-((5-(5-methyl-5H-pyrido[4,3-b]indol-7-yl)pyridin-2-yl)oxy)cyclobutoxy)ethoxy)propoxy)methyl)azetidin-1-yl)isoindoline-1,3-dione] was tested, and the “Degradation activity (tau protein remaining; highest amount of degradation observed at any dosage)” value was “A (≤50% tau protein remaining after 72 hours of incubation with the test compound)”. In the case of Cn1c2ccncc2c2ccc(-c3ccc(O[C@H]4C[C@H](OCCOCCOCC5CN(c6ccc7c(c6)C(=O)N(C6CCC(=O)NC6=O)C7=O)C5)C4)nc3)cc21 (stereo partly drawn) [Compound 192, 2-(2,6-dioxopiperidin-3-yl)-5-(3-((2-(2-((1r,3r)-3-((5-(5-methyl-5H-pyrido[4,3-b]indol-7-yl)pyridin-2-yl)oxy)cyclobutoxy)ethoxy)ethoxy)methyl)azetidin-1-yl)isoindoline-1,3-dione], the “Degradation activity (tau protein remaining; highest amount of degradation observed at any dosage)” value was “C (>80% tau protein remaining after 72 hours of incubation with the test compound)”. In the case of Cn1c2ccncc2c2ccc(-c3ccc(OC4CC5(C4)CN(C(=O)COCCCOC4CN(c6ccc7c(c6)C(=O)N(C6CCC(=O)NC6=O)C7=O)C4)C5)nc3)cc21 (stereo not drawn) [Compound 193, 2-(2,6-dioxopiperidin-3-yl)-5-(3-(3-(2-(6-((5-(5-methyl-5H-pyrido[4,3-b]indol-7-yl)pyridin-2-yl)oxy)-2-azaspiro[3.3]heptan-2-yl)-2-oxoethoxy)propoxy)azetidin-1-yl)isoindoline-1,3-dione], the “Degradation activity (tau protein remaining; highest amount of degradation observed at any dosage)” value was “B (≤80% and >50% tau protein remaining after 72 hours of incubation with the test compound)”. O=C1CCC(N2C(=O)c3ccc(N4CC(OCC#Cc5ccc(O[C@H]6C[C@H](Oc7ccc(-c8ccc9c(c8)[nH]c8ccncc89)cn7)C6)cn5)C4)cc3C2=O)C(=O)N1 (stereo partly drawn) [Compound 194, 5-(3-((3-(5-((1r,3r)-3-((5-(5H-pyrido[4,3-b]indol-7-yl)pyridin-2-yl)oxy)cyclobutoxy)pyridin-2-yl)prop-2-yn-1-yl)oxy)azetidin-1-yl)-2-(2,6-dioxopiperidin-3-yl)isoindoline-1,3-dione] was tested, and the “Degradation activity (tau protein remaining; highest amount of degradation observed at any dosage)” value was “C (>80% tau protein remaining after 72 hours of incubation with the test compound)”. In the case of Cn1c2cc(-c3ccc(OCCOCCOCCOCCOCCOc4ccc5c(c4)C(=O)N(C4CCC(=O)NC4=O)C5=O)nc3)ccc2c2cncc(Cl)c21 (stereo not drawn) [Compound 195, 5-((14-((5-(4-chloro-5-methyl-5H-pyrido[4,3-b]indol-7-yl)pyridin-2-yl)oxy)-3,6,9,12-tetraoxatetradecyl)oxy)-2-(2,6-dioxopiperidin-3-yl)isoindoline-1,3-dione], the “Degradation activity (tau protein remaining; highest amount of degradation observed at any dosage)” value was “A (≤50% tau protein remaining after 72 hours of incubation with the test compound)”. Cc1ncsc1-c1ccc(CNC(=O)[C@@H]2C[C@@H](O)CN2C(=O)[C@H](C(C)C)N2Cc3ccccc3C2=O)c(OCCOCCOCCOCCOc2ccc(-c3ccc4c(c3)[nH]c3ccncc34)cn2)c1 [Compound 196, (2S,4R)—N-(2-(2-(2-(2-(2-((5-(5H-pyrido[4,3-b]indol-7-yl)pyridin-2-yl)oxy)ethoxy)ethoxy)ethoxy)ethoxy)-4-(4-methylthiazol-5-yl)benzyl)-4-hydroxy-1-((S)-3-methyl-2-(1-oxoisoindolin-2-yl)butanoyl)pyrrolidine-2-carboxamide] was tested, and the “Degradation activity (tau protein remaining; highest amount of degradation observed at any dosage)” value was “C (>80% tau protein remaining after 72 hours of incubation with the test compound)”. With Cn1c2ccncc2c2ccc(-c3ccc(O[C@H]4C[C@H](OCCCC(F)(F)COC5CC6(C5)CN(c5ccc7c(c5)C(=O)N(C5CCC(=O)NC5=O)C7=O)C6)C4)nc3)cc21 (stereo partly drawn) [Compound 197, 5-(6-((2,2-difluoro-5-((1r,3r)-3-((5-(5-methyl-5H-pyrido[4,3-b]indol-7-yl)pyridin-2-yl)oxy)cyclobutoxy)pentyl)oxy)-2-azaspiro[3.3]heptan-2-yl)-2-(2,6-dioxopiperidin-3-yl)isoindoline-1,3-dione] the “Degradation activity (tau protein remaining; highest amount of degradation observed at any dosage)” value was “C (>80% tau protein remaining after 72 hours of incubation with the test compound)”.
